Measured values taken from patent publication US20210113501A1, “METHOD OF ADMINISTERING BETA-HYDROXY-BETA-METHYLBUTYRATE (HMB)” (Metabolic Technologies, Inc., priority 2009, published 2021).
Marks after values point to notes of the source that are not given here.

Assay: Study 1 hematology (complete blood count)
Format: in vivo, human
Settings: for Basophils (absolute) % Change / Basophils, % - % Change / Eosinophils (absolute) % Change / Eosinophils, % - % Change / Hematocrit % Change / Hemoglobin % Change / Lymphocytes (absolute) % Change / Lymphocytes, % - % Change / MCH % Change / MCHC % Change / MCV % Change / Monocytes (absolute) % Change / Monocytes, % - % Change / Neutrophils (absolute) % Change / Neutrophils, % - % Change / Platelets % Change / RBC % Change / RDW % Change / WBC % Change: Before to After
Description: Study 1 design. For study 1 the subjects reported to the laboratory in the morning following an overnight fast. Before ingestion of one of the supplemental treatments, a flexible sterile polyethylene catheter was inserted into a forearm vein using sterile procedures and a pre-ingestion blood sample was drawn. Subsequent blood samples were taken at 0, 2, 5, 10, 15, 25, 35, 45, 60, 90, 120 and 180 min after ingestion of the treatment. Plasma was separated and samples were stored frozen at −70° C. for analysis of HMB concentration. In addition, a portion of the pre-ingestion and 180 minute blood samples were used for measurements (LabCorp, Kansas City, Mo.) of glucose, uric acid, blood urea nitrogen (BUN), creatinine, sodium, potassium, chloride, carbon dioxide, phosphorous, protein, albumin, globulin, albumin:globulin ratio, total bilirubin, direct bilirubin, alkaline phosphatase, lactate dehydrogenase, aspartate aminotransferase (AST), alanine aminotransferase (ALT), gamma-glutamyl transpeptidase (GGT), iron binding capacity (TIBC), unsaturated iron binding capacity (UIBC), iron, iron saturation, total cholesterol, triglycerides, high density lipoprotein (HDL), low density lipoprotein (LDL), and cholesterol ratio. A complete blood count (CBC) was also performed before and after the 180 min treatment period. Subjects also completed a brief questionnaire to report any physical symptoms (such as nausea, headache, etc) they may have experienced during the experiment.
The data were analyzed using a crossover design with Proc GLM in SAS. (45) For the timed sampling of plasma HMB a repeated measures polynomial model was used. The model included subject, order, and treatment main effects and time by treatment interaction where appropriate. For other parameters Proc GLM was also used with subject, order, and treatment main effects and the p values are reported for the treatment main effect. Statistical significance was determined for p<0.05 and a trend was determined for 0.05<p<0.10.

## CC(C)(O)CC(=O)O [HMB-Acid Gel Sublingual, 3-hydroxy-3-methylbutyric acid]
After (180 min)
  Basophils (absolute): 0.03 ± 0.02 ×10^3/μL
  Basophils, %: 0.3 ± 0.2%
  Eosinophils (absolute): 0.1 ± 0.02 ×10^3/μL
  Eosinophils, %: 1.8 ± 0.3%
  Hematocrit: 38.5 ± 1.7%
  Hemoglobin: 13.3 ± 0.6 g/dL
  Lymphocytes (absolute): 2.2 ± 0.2 ×10^3/μL
  Lymphocytes, %: 35.5 ± 2.1%
  MCH: 31.0 ± 0.5 pg
  MCHC: 34.5 ± 0.2 g/dL
  MCV: 89.9 ± 1.7 fL
  Monocytes (absolute): 0.5 ± 0.05 ×10^3/μL
  Monocytes, %: 7.1 ± 0.7%
  Neutrophils (absolute): 3.5 ± 0.3 ×10^3/μL
  Neutrophils, %: 55.4 ± 2.9%
  Platelets: 213.9 ± 19.1 ×10^3/μL
  RBC: 4.3 ± 0.2 ×10^6/µL
  RDW: 13.3 ± 0.2%
  WBC: 6.3 ± 0.4 ×10^3/μL
Before
  Basophils (absolute): 0.03 ± 0.02 ×10^3/μL
  Basophils, %: 0.3 ± 0.2%
  Eosinophils (absolute): 0.2 ± 0.03 ×10^3/μL
  Eosinophils, %: 2.4 ± 0.4%
  Hematocrit: 37.8 ± 1.6%
  Hemoglobin: 13.1 ± 0.6 g/dL
  Lymphocytes (absolute): 2.8 ± 0.2 ×10^3/μL
  Lymphocytes, %: 43.0 ± 1.4%
  MCH: 31.0 ± 0.5 pg
  MCHC: 34.7 ± 0.2 g/dL
  MCV: 89.6 ± 1.6 fL
  Monocytes (absolute): 0.5 ± 0.1 ×10^3/μL
  Monocytes, %: 7.0 ± 1.0%
  Neutrophils (absolute): 3.1 ± 0.3 ×10^3/μL
  Neutrophils, %: 47.4 ± 2.2%
  Platelets: 221.3 ± 20.8 ×10^3/μL
  RBC: 4.2 ± 0.2 ×10^6/µL
  RDW: 13.2 ± 0.2%
  WBC: 6.6 ± 0.4 ×10^3/μL
  Basophils (absolute) % Change: 0.0%
  Basophils, % - % Change: 0.0%
  Eosinophils (absolute) % Change: −28.6%
  Eosinophils, % - % Change: −26.3%
  Hematocrit % Change: 2.0%
  Hemoglobin % Change: 1.4%
  Lymphocytes (absolute) % Change: −22.1%
  Lymphocytes, % - % Change: −17.4%
  MCH % Change: 0.0%
  MCHC % Change: −0.5%
  MCV % Change: 0.3%
  Monocytes (absolute) % Change: 0.0%
  Monocytes, % - % Change: 1.8%
  Neutrophils (absolute) % Change: 11.6%
  Neutrophils, % - % Change: 16.9%
  Platelets % Change: −3.3%
  RBC % Change: 1.7%
  RDW % Change: 0.9%
  WBC % Change: −4.2%

## CC(C)(O)CC(=O)O [HMB-Acid Gel Swallow, 3-hydroxy-3-methylbutyric acid]
After (180 min)
  Basophils (absolute): 0.04 ± 0.02 ×10^3/μL
  Basophils, %: 0.4 ± 0.2%
  Eosinophils (absolute): 0.1 ± 0.02 ×10^3/μL
  Eosinophils, %: 2.4 ± 0.4%
  Hematocrit: 37.6 ± 1.5%
  Hemoglobin: 13.0 ± 0.5 g/dL
  Lymphocytes (absolute): 2.2 ± 0.1 ×10^3/μL
  Lymphocytes, %: 37.4 ± 1.9%
  MCH: 31.4 ± 0.8 pg
  MCHC: 34.6 ± 0.3 g/dL
  MCV: 90.0 ± 1.5 fL
  Monocytes (absolute): 0.5 ± 0.04 ×10^3/μL
  Monocytes, %: 7.0 ± 0.6%
  Neutrophils (absolute): 3.3 ± 0.2 ×10^3/μL
  Neutrophils, %: 52.9 ± 2.2%
  Platelets: 202.4 ± 25. ×10^3/μL
  RBC: 4.2 ± 0.2 ×10^6/µL
  RDW: 13.2 ± 0.3%
  WBC: 6.1 ± 0.3 ×10^3/μL
Before
  Basophils (absolute): 0.01 ± 0.01^a ×10^3/μL
  Basophils, %: 0.1 ± 0.1^a %
  Eosinophils (absolute): 0.2 ± 0.04 ×10^3/μL
  Eosinophils, %: 2.5 ± 0.3%
  Hematocrit: 37.6 ± 1.6%
  Hemoglobin: 13.1 ± 0.5 g/dL
  Lymphocytes (absolute): 3.1 ± 0.3 ×10^3/μL
  Lymphocytes, %: 43.8 ± 2.8%
  MCH: 31.2 ± 0.7 pg
  MCHC: 34.7 ± 0.3 g/dL
  MCV: 90.1 ± 1.3 fL
  Monocytes (absolute): 0.5 ± 0.1 ×10^3/μL
  Monocytes, %: 7.6 ± 0.7%
  Neutrophils (absolute): 3.0 ± 0.2 ×10^3/μL
  Neutrophils, %: 46.0 ± 2.8%
  Platelets: 195.0 ± 31.5 ×10^3/μL
  RBC: 4.2 ± 0.2 ×10^6/µL
  RDW: 13.2 ± 0.2%
  WBC: 6.7 ± 0.5 ×10^3/μL
  Basophils (absolute) % Change: 200.0%
  Basophils, % - % Change: 200.0%
  Eosinophils (absolute) % Change: −41.2%
  Eosinophils, % - % Change: −5.0%
  Hematocrit % Change: −0.1%
  Hemoglobin % Change: −0.4%
  Lymphocytes (absolute) % Change: −29.1%
  Lymphocytes, % - % Change: −14.6%
  MCH % Change: 0.7%
  MCHC % Change: −0.3%
  MCV % Change: −0.1%
  Monocytes (absolute) % Change: −7.7%
  Monocytes, % - % Change: −8.2%
  Neutrophils (absolute) % Change: 10.9%
  Neutrophils, % - % Change: 14.9%
  Platelets % Change: 3.8%
  RBC % Change: 0.1%
  RDW % Change: 0.4%
  WBC % Change: −10.2%
p<0.04
  decrease in absolute lymphocyte numbers over the measurement period: significantly greater decrease
